Source: patent US20220031723A1, “POWDERED FOOD COMPOSITION COMPRISING ERIOCITRIN” (EUROMED, S.A., priority 2020, published 2022)
In brackets after ≈: the same amount, converted by molar mass.

Legend:
[1] = cited from earlier work; for water solubility: in water
[2] = Occurrence of plasma and urine metabolites in volunteers after consuming lemon or orange extract; format: in vivo, human; conditions: human, in vivo
From the text: Through a targeted metabolomic strategy, a total of 17 metabolites were tentatively identified (Table 3). No hesperidin or eriocitrin-derived metabolites were detected in any volunteer at baseline. All the identified metabolites were detected at least in one volunteer, independently of the extract consumed, except for the metabolites M9 (eriodictyol sulfoglucuronide) and M11 (hesperetin sulfoglucuronide), which only were detected after consuming lemon and orange extract, respectively (Table 3). These representative EICs illustrate the metabolites identified in urine (F3 fraction) after consuming lemon (FIG. 3A) and orange (FIG. 3B) extracts, and plasma after consuming lemon (FIG. 3C) and orange (FIG. 3D) extracts. From the 17 metabolites, 16 were detected after consuming lemon extract (except M11), and 15 after consuming orange extract (except M9 and M10 in urine, and M9 and M12 in plasma) (Table 3).

[3] = Urinary excretion of quantified metabolites in collected fractions after extract intake; format: in vivo, human; conditions: after consuming lemon extract, mean ± SD
Protocol: Table 4 and Table 5 show the urinary excretion of quantified metabolites at the different fractions collected, i.e., 0-4 h (F1), 4-8 h (F2), 8-10 h (F3), and 10-24 h (F4), after extracts intake.

Row | Compound | solubility in water [1] | water solubility [1] | Occurrence Plasma LE (number of volunteers in whom metabolite was detected) [2] | Occurrence Plasma LE (second column so headed; number of volunteers in whom metabolite was detected) [2] | Occurrence Urine LE (number of volunteers in whom metabolite was detected) [2] | Occurrence Urine LE (second column so headed; number of volunteers in whom metabolite was detected) [2] | Metabolite quantified in urine fraction F1 ([3]; fraction 0 to 4 h) | Metabolite quantified in urine fraction F2 ([3]; fraction 4 to 8 h) | Metabolite quantified in urine fraction F3 ([3]; fraction 8 to 10 h) | Metabolite quantified in urine fraction F4 ([3]; fraction collected at 24 h (10-24 h)) | Metabolite quantified in urine, Total F (24 h) ([3]; sum of fractions F1-F4)
1 | C[C@@H]1O[C@@H](OC[C@H]2O[C@@H](Oc3cc(O)c4c(c3)O[C@H](c3ccc(O)c(O)c3)CC4=O)[C@H](O)[C@@H](O)[C@@H]2O)[C@H](O)[C@H](O)[C@H]1O [eriocitrin, Eriocitrin] | 4000 micrograms/ml | about 40 mg/ml |  |  |  |  |  |  |  |  | 
2 | COc1ccc([C@@H]2CC(=O)c3c(O)cc(O[C@@H]4O[C@H](CO[C@@H]5O[C@@H](C)[C@H](O)[C@@H](O)[C@H]5O)[C@@H](O)[C@H](O)[C@H]4O)cc3O2)cc1O [hesperidin, Hesperidin, reference compound] | 5 micrograms/ml | 4.9 µg/mL (≈ 8.03 µM) |  |  |  |  |  |  |  |  | 
3 | Homoeriodictyol sulfate [M10] |  |  | 16 | 3 | 16 | 0 | 3.8 ± 3.2 μg/mg creatinine | 4.0 ± 5.5 μg/mg creatinine | 3.6 ± 4.1 μg/mg creatinine | 0.5 ± 0.4 μg/mg creatinine | 9.6 ± 11.3 μg/mg creatinine
